Results from patent US3970703A, “Phenylacetic acid derivatives” (Sumitomo Chemical Company, Limited, priority 1970, dated 1976).
Where “and” joins values, the source holds several entries; their conditions need not be identical. Equal values may be shown once. Read-outs that look alike come from different tables or passages of the source.

Key:
[1] = in words, background; cited from earlier work
[2] = tested on: housefly adults; type: in vivo
[3] = tested on: house fly adults; experiment: Oil spray test, Campbell's turn table method (Test Examples 1 and 2); details: Musca domestica, topical, 24 h, read-out: killing ratio
[4] = insecticide alone, no synergist (reference 1.0)
[5] = tetramethrin + 5 times weight of synergist, relative to tetramethrin alone of same batch
[6] = tetramethrin + 5 times weight of synergist, three batches (tetramethrin alone 0.530, 0.520, 0.570)
[7] = insecticide alone, no synergist
[8] = 3,4-dimethylphenyl-N-methylcarbamate + synergist, relative to insecticide alone
[9] = 3,4-dimethylphenyl-N-methylcarbamate + synergist, three batches
[10] = allethrin + 5 times weight of synergist, relative to allethrin alone
[11] = allethrin + 5 times weight of synergist, three batches
[12] = natural pyrethrin + 5 times weight of synergist, relative to natural pyrethrin alone
[13] = natural pyrethrin + 5 times weight of synergist, three batches
[14] = present compound alone, no insecticide

For `CCCCOCCOCCOCc1cc2c(cc1CCC)OCO2` [Piperonyl butoxide, α-[2-(butoxyethoxy)-ethoxy]-4,5-methylene-dioxy-2-propyltoluene], the “synergistic effect on allethrin and other synthetic pyrethroids” value [1] is given as “somewhat inferior” and the “synergistic effect on natural pyrethrin” value [1] is given as “prominent synergistic effect”.

With `CNC(=O)Oc1cccc2ccccc12` [Carbaryl, reference compound] the “Ratio of enhancing the killing effect” value [2, 4] was 1.0.

With `C#CCCOCC(CCC)(OC)c1ccccc1` (stereo not shown) [Present compound (26)] the “Ratio of enhancing the killing effect” value [2, 5] was 7.0 and the LD50 [2, 6] was 0.081 γ/Fly.

With `CC(C)=CC1C(C(=O)OCN2C(=O)C3=C(CCCC3)C2=O)C1(C)C` (stereo not shown) [Tetramethrin, N-chrysanthemoxymethyl-3,4,5,6-tetrahydrophthalimide, reference compound] the LD50 [2, 7] was 0.530 γ/Fly and 0.520 γ/Fly and 0.570 γ/Fly, the “Ratio of enhancing the killing effect” value [2, 4] was 1.0 and the mortality at 0.05 % [3] was 52%.

In the case of `C#CCCOC(=O)C(OC)(c1ccccc1)c1ccccc1` [Present compound (16)], the “Ratio of enhancing the killing effect” value [2, 8] is reported as ≥ 20, the LD50 [2, 9] is reported as 0.25 γ/Fly and the “Ratio of enhancing the killing effect” value [2, 10] is reported as 7.2. The LD50 [2, 11] was 0.083 γ/Fly, the “Ratio of enhancing the killing effect” value [2, 12] was 5.5 and the LD50 [2, 13] was 0.064 γ/Fly. For the same molecule, the “Ratio of enhancing the killing effect” value [2, 5] was 9.5 and the LD50 [2, 6] was 0.055 γ/Fly.

With `C#CCOCC(CC=C)(OCC)c1ccccc1` (stereo not drawn) [Present compound (21), Propargyl α-allyl-α-ethoxyphenethyl ether] the “Ratio of enhancing the killing effect” value [2, 5] was 9.5 and the LD50 [2, 6] was 0.060 γ/Fly.

For `C#CCOCC(CCC)(OC)c1ccccc1` (stereo not drawn) [Present compound (19), Propargyl α-(n-propyl)-α-methoxyphenethyl ether], the “Ratio of enhancing the killing effect” value [2, 5] was 8.5 and the LD50 [2, 6] was 0.067 γ/Fly.

In the case of `C#CCOC(=O)C(OC)(c1ccccc1)C1CCCCC1` (stereo not drawn) [Present compound (9), Propargyl α-cyclohexyl-α-methoxyphenylacetate], the “Ratio of enhancing the killing effect” value [2, 5] is reported as 4.8 and the LD50 [2, 6] is reported as 0.111 γ/Fly.

With `C#CCOC(=O)C(CCC=C)(OC)c1ccccc1` (stereo not drawn) [Present compound (4), Propargyl α-butenyl-α-methoxyphenylacetate] the “Ratio of enhancing the killing effect” value [2, 5] was 7.5 and the LD50 [2, 6] was 0.071 γ/Fly.

For `C=CCOC(=O)C(Cc1ccccc1)(OC)c1ccccc1` (stereo not drawn) [Present compound (13), Allyl α-benzyl-α-methoxyphenylacetate], the “Ratio of enhancing the killing effect” value [2, 5] was 10.4 and the LD50 [2, 6] was 0.050 γ/Fly.

In the case of `C#CCOC(=O)C(CC=C)(OCCC)c1ccccc1` (stereo not drawn) [Present compound (7), Propargyl α-allyl-α-(n-propyloxy)-phenylacetate], the “Ratio of enhancing the killing effect” value [2, 5] is reported as 7.9 and the LD50 [2, 6] is reported as 0.067 γ/Fly.

In the case of `C#CCOC(=O)C(OC)(c1ccccc1)C(C)C` (stereo not drawn) [Present compound (2), Propargyl α-(iso-propyl)-α-methoxyphenylacetate], the LD50 [2, 14] is reported as ≥ 2 γ/Fly, the “Ratio of enhancing the killing effect” value [2, 5] is reported as 8.7 and the LD50 [2, 6] is reported as 0.061 γ/Fly.

In the case of `C#CCOC(=O)C(CCC)(OC)c1ccccc1` (stereo not drawn) [Present compound (1), Propargyl α-(n-propyl)-α-methoxyphenylacetate], the “Ratio of enhancing the killing effect” value [2, 8] is reported as ≥ 18, the LD50 [2, 9] is reported as 0.278 γ/Fly and the “Ratio of enhancing the killing effect” value [2, 10] is reported as 6.6. The LD50 [2, 11] was 0.085 γ/Fly, the “Ratio of enhancing the killing effect” value [2, 12] was 4.9 and the LD50 [2, 13] was 0.082 γ/Fly. For the same molecule, the LD50 [2, 14] was ≥ 2 γ/Fly, the “Ratio of enhancing the killing effect” value [2, 5] was 7.8 and the LD50 [2, 6] was 0.068 γ/Fly.

For `CNC(=O)Oc1ccc(C)c(C)c1` [3,4-Dimethylphenyl-N-methylcarbamate, 3,4-dimethylphenyl-N-methylcarbamate, reference compound], the LD50 [2, 7] was ≥ 5 γ/Fly and the “Ratio of enhancing the killing effect” value [2, 4] was 1.0.

With `C#CCCOC(=O)C(CC=C)(OC)c1ccccc1` (stereo not shown) [Present compound (10)] the LD50 [2, 14] was ≥ 2 γ/Fly, the “Ratio of enhancing the killing effect” value [2, 5] was 6.9 and the LD50 [2, 6] was 0.077 γ/Fly.

With `C#CCCCCOC(=O)C(CCC)(OCC)c1ccccc1` (stereo not shown) [Present compound (17)] the “Ratio of enhancing the killing effect” value [2, 5] was 8.3 and the LD50 [2, 6] was 0.063 γ/Fly.

In the case of `C#CCOC(=O)C(Cc1ccccc1)(OC)c1ccccc1` (stereo not drawn) [Present compound (11), Propargyl α-benzyl-α-methoxyphenylacetate], the “Ratio of enhancing the killing effect” value [2, 8] is reported as ≥ 24, the LD50 [2, 9] is reported as 0.21 γ/Fly and the “Ratio of enhancing the killing effect” value [2, 10] is reported as 10.0. The LD50 [2, 11] was 0.060 γ/Fly, the “Ratio of enhancing the killing effect” value [2, 12] was 6.5 and the LD50 [2, 13] was 0.054 γ/Fly. For the same molecule, the “Ratio of enhancing the killing effect” value [2, 5] was 11.3 and the LD50 [2, 6] was 0.046 γ/Fly.

In the case of `C#CCOC(=O)C(Cc1ccccc1)(OCC)c1ccccc1` (stereo not drawn) [Present compound (12), Propargyl α-benzyl-α-ethoxyphenylacetate], the “Ratio of enhancing the killing effect” value [2, 5] is reported as 10.0 and the LD50 [2, 6] is reported as 0.052 γ/Fly.

With `C#CCOCC(CC=C)(OC)c1ccccc1` (stereo not shown) [Present compound (20)] the “Ratio of enhancing the killing effect” value [2, 8] was ≥ 19, the LD50 [2, 9] was 0.252 γ/Fly and the “Ratio of enhancing the killing effect” value [2, 10] was 9.8. The LD50 [2, 11] was 0.062 γ/Fly, the “Ratio of enhancing the killing effect” value [2, 12] was 7.0 and the LD50 [2, 13] was 0.056 γ/Fly. The “Ratio of enhancing the killing effect” value [2, 5] was 10.8 and the LD50 [2, 6] was 0.053 γ/Fly.

With `C#CCCCCOCC(CCC)(OC)c1ccccc1` (stereo not shown) [Present compound (27)] the “Ratio of enhancing the killing effect” value [2, 5] was 7.0 and the LD50 [2, 6] was 0.081 γ/Fly.

With `C#CCCOC(=O)C(OCCC#C)(c1ccccc1)c1ccccc1` [Present compound (18)] the “Ratio of enhancing the killing effect” value [2, 5] was 11.1 and the LD50 [2, 6] was 0.047 γ/Fly.

In the case of `CC(C)=CC1C(C(=O)OCc2coc(Cc3ccccc3)c2)C1(C)C` (stereo not shown) [Chrysron, 5-benzyl-3-furylmethyl chrysanthemate, reference compound], the LD50 ([2]; in vivo) is reported as 0.026 γ/Fly and 0.024 γ/Fly and 0.027 γ/Fly and the “Ratio of enhancing the killing effect” value [2, 4] is reported as 1.0.

For `C#CCOC(=O)C(CCCCCC)(OC)c1ccccc1` (stereo not drawn) [Present compound (8), Propargyl α-(n-hexyl)-α-methoxyphenylacetate], the “Ratio of enhancing the killing effect” value [2, 5] was 4.5 and the LD50 [2, 6] was 0.128 γ/Fly.

For `C#CCOC(=O)C(CC(C)C)(OC)c1ccccc1` (stereo not drawn) [Present compound (6), Propargyl α-(iso-butyl)-α-methoxyphenylacetate], the “Ratio of enhancing the killing effect” value [2, 5] was 8.0 and the LD50 [2, 6] was 0.066 γ/Fly.

With `C#CCC(OC)(C(=O)OCC=C)c1ccccc1` (stereo not drawn) [Present compound (15), Allyl α-propargyl-α-methoxyphenylacetate] the “Ratio of enhancing the killing effect” value [2, 5] was 8.7 and the LD50 [2, 6] was 0.060 γ/Fly.

For `CCCCC(CC)CN1C(=O)C2C3C=CC(C3)C2C1=O` (stereo not shown) [MGK-264, N-(2-ethylhexyl)bicyclo[2,2,1]-hept-5-ene-anhydro-phthalic acid-2,3-dicarboxyimide], the “synergistic effect on allethrin compared with natural pyrethrin” value [1] is listed as “more excellent synergistic effect on allethrin than that on natural pyrethrin”.

In the case of `C#CCOC(=O)C(CC=C)(OC)c1ccccc1` (stereo not drawn) [Present compound (3), Propargyl α-allyl-α-methoxyphenylacetate], the “Ratio of enhancing the killing effect” value [2, 8] is reported as ≥ 18, the LD50 [2, 9] is reported as 0.273 γ/Fly and the “Ratio of enhancing the killing effect” value [2, 10] is reported as 7.4. For the same molecule, the LD50 [2, 11] was 0.076 γ/Fly, the “Ratio of enhancing the killing effect” value [2, 12] was 5.1 and the LD50 [2, 13] was 0.079 γ/Fly. The “Ratio of enhancing the killing effect” value [2, 5] was 8.3 and the LD50 [2, 6] was 0.064 γ/Fly.

In the case of `C#CCOC(=O)C(CC=C)(OCC)c1ccccc1` (stereo not drawn) [Present compound (5), Propargyl α-allyl-α-ethoxyphenylacetate], the “Ratio of enhancing the killing effect” value [2, 8] is reported as ≥ 21, the LD50 [2, 9] is reported as 0.238 γ/Fly and the “Ratio of enhancing the killing effect” value [2, 10] is reported as 9.8. For the same molecule, the LD50 [2, 11] was 0.057 γ/Fly, the “Ratio of enhancing the killing effect” value [2, 12] was 5.6 and the LD50 [2, 13] was 0.071 γ/Fly. For the same molecule, the “Ratio of enhancing the killing effect” value [2, 5] was 12.5 and the LD50 [2, 6] was 0.042 γ/Fly.

For `C#CCOCC(CC(C)C)(OCC=C)c1ccccc1` (stereo not drawn) [Present compound (22), Propargyl α-(iso-butyl)-α-allyloxyphenethyl ether], the “Ratio of enhancing the killing effect” value [2, 5] was 10.2 and the LD50 [2, 6] was 0.056 γ/Fly.

For `C#CCOC(=O)C(OC)(c1ccccc1)c1cccs1` (stereo not drawn) [Present compound (14), Propargyl α-(2-thienyl)-α-methoxyphenylacetate], the “Ratio of enhancing the killing effect” value [2, 5] was 8.1 and the LD50 [2, 6] was 0.064 γ/Fly.

For `C=CCC1=C(C)C(OC(=O)C2C(C=C(C)C)C2(C)C)CC1=O` (stereo not shown) [Allethrin, reference compound], the LD50 [2, 7] was 0.560 γ/Fly and 0.60 γ/Fly and 0.610 γ/Fly and the “Ratio of enhancing the killing effect” value [2, 4] was 1.0.
